Data published in ChEMBL document CHEMBL3880421, “Indazole compounds and pharmaceutical compositions for inhibiting protein kinases, and methods for their use” (2003).

Test: Antiproliferative activity against VEGF-stimulated HUVEC cells assessed as reduction in cell viability at 0.5 nM preincubated for 1 hr followed by addition of VEGF measured after 72 hrs by MTT assay
Format: functional
Conditions: Homo sapiens

Row | SMILES | inhibition at 0.0005 µM [%]
1 | O=C(Nc1ccc(F)c(F)c1)c1ccccc1Sc1ccc2c(/C=C/c3ccccn3)n[nH]c2c1 | -38
2 | O=C(Nc1nccc2cccnc12)c1ccccc1Sc1ccc2c(/C=C/c3ccccn3)n[nH]c2c1 | -3
3 | CCOC(=O)c1c[nH]nc1NC(=O)c1ccccc1Sc1ccc2c(/C=C/c3ccccn3)n[nH]c2c1 | -11
4 | CC(=O)Nc1cccc(NC(=O)c2ccccc2Sc2ccc3c(/C=C/c4ccccn4)n[nH]c3c2)c1 | -29
5 | O=C(N[C@@H]1C[C@H]1c1ccccc1)c1ccccc1Sc1ccc2c(/C=C/c3ccccn3)n[nH]c2c1 (racemic) | 10
6 | CC1(C)C2CC[C@H](CNC(=O)c3ccccc3Sc3ccc4c(/C=C/c5ccccn5)n[nH]c4c3)C1C2 (some centres not stated) | -19
7 | CC(C)(NC(=O)c1ccccc1Sc1ccc2c(/C=C/c3ccccn3)n[nH]c2c1)c1ccccc1 | -25
8 | O=C(NCc1ccco1)c1ccccc1Nc1ccc2c(/C=C/c3ccccn3)n[nH]c2c1 | 70
9 | Cc1cc(C)c(NC(=O)c2ccccc2Sc2ccc3c(/C=C/c4ccccn4)n[nH]c3c2)c(C)c1 | -10
10 | CC(C)ONC(=O)c1ccccc1Nc1ccc2c(/C=C/c3ccccn3)n[nH]c2c1 | 35
11 | O=C(NC12CC3CC(CC(C3)C1)C2)c1ccccc1Sc1ccc2c(/C=C/c3ccccn3)n[nH]c2c1 | 3
12 | O=C(N[C@@H]1c2ccccc2C[C@@H]1O)c1ccccc1Sc1ccc2c(/C=C/c3ccccn3)n[nH]c2c1 | -6
13 | Cc1ccc(Cl)cc1NC(=O)c1ccccc1Sc1ccc2c(/C=C/c3ccccn3)n[nH]c2c1 | 22
14 | O=C(Nc1nccnn1)c1ccccc1Sc1ccc2c(/C=C/c3ccccn3)n[nH]c2c1 | 3
15 | CCC(C)(C)NC(=O)c1ccccc1Sc1ccc2c(/C=C/c3ccccn3)n[nH]c2c1 | -29
16 | O=C(N[n+]1ccccc1)c1ccccc1Nc1ccc2c(/C=C/c3ccccn3)n[nH]c2c1 | 48
17 | C[C@H](NC(=O)c1ccccc1Sc1ccc2c(/C=C/c3ccccn3)n[nH]c2c1)[C@H](O)c1ccccc1 | 9
18 | Cc1ccc(F)cc1NC(=O)c1ccccc1Sc1ccc2c(/C=C/c3ccccn3)n[nH]c2c1 | 12
19 | O=C(NC[C@@H]1CCCO1)c1ccccc1Sc1ccc2c(/C=C/c3ccccn3)n[nH]c2c1 | -8
20 | C[C@H](CNC(=O)c1ccccc1Sc1ccc2c(/C=C/c3ccccn3)n[nH]c2c1)c1ccccc1 | -9
21 | O=C(Nc1c(F)cccc1Cl)c1ccccc1Sc1ccc2c(/C=C/c3ccccn3)n[nH]c2c1 | 12

Row | SMILES | inhibition at 0.0005 µM [%]
22 | C[N+](C)(C)NC(=O)c1ccccc1Nc1ccc2c(/C=C/c3ccccn3)n[nH]c2c1 | 8
23 | O=C(NCCCc1ccccc1)c1ccccc1Nc1ccc2c(/C=C/c3ccccn3)n[nH]c2c1 | 50
24 | CCCCNC(=O)c1ccccc1Nc1ccc2c(/C=C/c3ccccn3)n[nH]c2c1 | 52
25 | Cc1cc(F)ccc1NC(=O)c1ccccc1Sc1ccc2c(/C=C/c3ccccn3)n[nH]c2c1 | -22
26 | Cc1cc(C)c(O)c(NC(=O)c2ccccc2Sc2ccc3c(/C=C/c4ccccn4)n[nH]c3c2)c1 | -5
27 | O=C(NCc1ccc2c(c1)OCC2)c1ccccc1Sc1ccc2c(/C=C/c3ccccn3)n[nH]c2c1 | 14
28 | CC(C)Oc1ccc(NC(=O)c2ccccc2Sc2ccc3c(/C=C/c4ccccn4)n[nH]c3c2)cc1 | -9
29 | O=C(NNC(=O)c1ccccc1Nc1ccc2c(/C=C/c3ccccn3)n[nH]c2c1)c1cccnc1 | 31
30 | O=C(Nc1cnc2ccccc2c1)c1ccccc1Sc1ccc2c(/C=C/c3ccccn3)n[nH]c2c1 | -8
31 | O=C(Nc1cccc2ccc(O)cc12)c1ccccc1Sc1ccc2c(/C=C/c3ccccn3)n[nH]c2c1 | -6
32 | C[C@@H](NC(=O)c1ccccc1Sc1ccc2c(/C=C/c3ccccn3)n[nH]c2c1)c1ccccc1 | 9
33 | O=C(N[C@@H]1CN2CC[C@H]1C2)c1ccccc1Nc1ccc2c(/C=C/c3ccccn3)n[nH]c2c1 | 12
34 | COc1ccc(NC(=O)c2ccccc2Sc2ccc3c(/C=C/c4ccccn4)n[nH]c3c2)cc1O | -19
35 | Cc1cc(NC(=O)c2ccccc2Sc2ccc3c(/C=C/c4ccccn4)n[nH]c3c2)ccc1Cl | -43
36 | C[C@@H](NC(=O)c1ccccc1Sc1ccc2c(/C=C/c3ccccn3)n[nH]c2c1)c1cccc2ccccc12 | 1
37 | Cc1c(O)cccc1NC(=O)c1ccccc1Sc1ccc2c(/C=C/c3ccccn3)n[nH]c2c1 | 1
38 | CC(C)(C)c1cccc(NC(=O)c2ccccc2Sc2ccc3c(/C=C/c4ccccn4)n[nH]c3c2)c1 | -5
39 | O=C(Nc1ccccc1Cl)c1ccccc1Sc1ccc2c(/C=C/c3ccccn3)n[nH]c2c1 | -2
40 | CCC(NC(=O)c1ccccc1Nc1ccc2c(/C=C/c3ccccn3)n[nH]c2c1)c1ccccc1 (configuration not stated) | 45
41 | O=C(Nc1cccc(-c2nnco2)c1)c1ccccc1Sc1ccc2c(/C=C/c3ccccn3)n[nH]c2c1 | -23
42 | O=C(NCCc1cccs1)c1ccccc1Sc1ccc2c(/C=C/c3ccccn3)n[nH]c2c1 | 36

Row | SMILES | inhibition at 0.0005 µM [%]
43 | CC(C)(C)CC(C)(C)NC(=O)c1ccccc1Sc1ccc2c(/C=C/c3ccccn3)n[nH]c2c1 | 0
44 | O=C(N[C@@H](CO)c1ccccc1)c1ccccc1Sc1ccc2c(/C=C/c3ccccn3)n[nH]c2c1 | -17
45 | O=C(NCc1ccc2c(c1)OCO2)c1ccccc1Nc1ccc2c(/C=C/c3ccccn3)n[nH]c2c1 | 46
46 | COc1ccccc1NC(=O)c1ccccc1Sc1ccc2c(/C=C/c3ccccn3)n[nH]c2c1 | -8
47 | CNc1ccccc1NC(=O)c1ccccc1Sc1ccc2c(/C=C/c3ccccn3)n[nH]c2c1 | -2
48 | O=C(Nc1c(Cl)cccc1Cl)c1ccccc1Sc1ccc2c(/C=C/c3ccccn3)n[nH]c2c1 | -45
49 | Cc1ccccc1NC(=O)c1ccccc1Sc1ccc2c(/C=C/c3ccccn3)n[nH]c2c1 | 5
50 | CC(O)c1cccc(NC(=O)c2ccccc2Sc2ccc3c(/C=C/c4ccccn4)n[nH]c3c2)c1 (configuration not stated) | -32
51 | Cc1cc(C)cc(NC(=O)c2ccccc2Sc2ccc3c(/C=C/c4ccccn4)n[nH]c3c2)c1 | -4
52 | O=C(N[C@H](CO)[C@H](O)c1ccccc1)c1ccccc1Sc1ccc2c(/C=C/c3ccccn3)n[nH]c2c1 | -1
53 | CCCCCNC(=O)c1ccccc1Nc1ccc2c(/C=C/c3ccccn3)n[nH]c2c1 | 49
54 | O=C(NCc1ccccc1F)c1ccccc1Nc1ccc2c(/C=C/c3ccccn3)n[nH]c2c1 | 75
55 | Cc1cc(C)c(NC(=O)c2ccccc2Sc2ccc3c(/C=C/c4ccccn4)n[nH]c3c2)c(Cl)c1 | -26
56 | C[C@H](NC(=O)c1ccccc1Sc1ccc2c(/C=C/c3ccccn3)n[nH]c2c1)c1ccc2ccccc2c1 | -8
57 | C[C@@H](NC(=O)c1ccccc1Sc1ccc2c(/C=C/c3ccccn3)n[nH]c2c1)C1CCCCC1 | 9
58 | O=C(NC[C@@H](O)c1ccccc1)c1ccccc1Sc1ccc2c(/C=C/c3ccccn3)n[nH]c2c1 | 2
59 | C[C@H](NC(=O)c1ccccc1Sc1ccc2c(/C=C/c3ccccn3)n[nH]c2c1)C1CCCCC1 | -12
60 | Cc1cccc(CNC(=O)c2ccccc2Nc2ccc3c(/C=C/c4ccccn4)n[nH]c3c2)c1 | 19
61 | CC(C)(C)OC(=O)C(C)(C)NC(=O)c1ccccc1Sc1ccc2c(/C=C/c3ccccn3)n[nH]c2c1 | 6
62 | CNC(=O)c1cccc(NC(=O)c2ccccc2Sc2ccc3c(/C=C/c4ccccn4)n[nH]c3c2)c1 | -11
63 | O=C(NCc1cc(F)cc(F)c1F)c1ccccc1Sc1ccc2c(/C=C/c3ccccn3)n[nH]c2c1 | 24

Row | SMILES | inhibition at 0.0005 µM [%]
64 | Cc1cc(NC(=O)c2ccccc2Sc2ccc3c(/C=C/c4ccccn4)n[nH]c3c2)ccc1C(C)C | 6
65 | CCOC(=O)c1cccc(NC(=O)c2ccccc2Sc2ccc3c(/C=C/c4ccccn4)n[nH]c3c2)c1 | 7
66 | COc1sc(NC(=O)c2ccccc2Sc2ccc3c(/C=C/c4ccccn4)n[nH]c3c2)nc1C | -2
67 | O=C(NCC12CC3CC(CC(C3)C1)C2)c1ccccc1Sc1ccc2c(/C=C/c3ccccn3)n[nH]c2c1 | 1
68 | C[C@@H](NC(=O)c1ccccc1Sc1ccc2c(/C=C/c3ccccn3)n[nH]c2c1)c1ccc2ccccc2c1 | 1
69 | COC(=O)c1ccc(NC(=O)c2ccccc2Sc2ccc3c(/C=C/c4ccccn4)n[nH]c3c2)c(O)c1 | -22
70 | C#CC(NC(=O)c1ccccc1Sc1ccc2c(/C=C/c3ccccn3)n[nH]c2c1)C1CCCCC1 (configuration not stated) | 3
71 | O=C(N[C@H]1CC2CCC1C2)c1ccccc1Sc1ccc2c(/C=C/c3ccccn3)n[nH]c2c1 (some centres not stated) | -9
72 | Cc1c(Cl)cccc1NC(=O)c1ccccc1Sc1ccc2c(/C=C/c3ccccn3)n[nH]c2c1 | 9
73 | Cc1ccc(F)c(NC(=O)c2ccccc2Sc2ccc3c(/C=C/c4ccccn4)n[nH]c3c2)c1 | -1
74 | CCc1cccc(NC(=O)c2ccccc2Sc2ccc3c(/C=C/c4ccccn4)n[nH]c3c2)n1 | -12
75 | O=C(Nc1ccc(O)cc1O)c1ccccc1Sc1ccc2c(/C=C/c3ccccn3)n[nH]c2c1 | 20
76 | CCc1cccc(C)c1NC(=O)c1ccccc1Sc1ccc2c(/C=C/c3ccccn3)n[nH]c2c1 | -4
77 | O=C(Nc1ccc2c(c1)CCC2)c1ccccc1Sc1ccc2c(/C=C/c3ccccn3)n[nH]c2c1 | -6
78 | O=C(NCc1ccccc1)c1ccccc1Nc1ccc2c(/C=C/c3ccccn3)n[nH]c2c1 | 70
79 | O=C(Nc1ccc2ncsc2c1)c1ccccc1Sc1ccc2c(/C=C/c3ccccn3)n[nH]c2c1 | -20
80 | COc1cccc(OC)c1NC(=O)c1ccccc1Sc1ccc2c(/C=C/c3ccccn3)n[nH]c2c1 | -57
81 | Cc1ccccc1C(=O)NNC(=O)c1ccccc1Nc1ccc2c(/C=C/c3ccccn3)n[nH]c2c1 | 86
82 | O=C(N[C@H](CO)Cc1ccccc1)c1ccccc1Sc1ccc2c(/C=C/c3ccccn3)n[nH]c2c1 | 1
